Legend:
[1] = target: C-C chemokine receptor type 5 (Homo sapiens, UniProt P51681); assay: Displacement of […] from CCR5 expressed in HEK293F cells; type: cell-based
[2] = Cytotoxicity against human PBMC; type: cell-based
[3] = tested on: Human immunodeficiency virus 1; assay: Antiviral activity against Human immunodeficiency virus 1 BAL infected in human PBMC assessed as inhibition of viral replication by p24 antigen specific ELISA; type: functional, organism-based
[4] = Cmax in rat; type: ADME, organism-based; conditions: in vivo
[5] = Half life in rat at 10 umol/kg, iv; type: ADME, organism-based; conditions: in vivo
[6] = Half life in dog at 5 umol/kg, iv; type: ADME, organism-based, Canis lupus familiaris; conditions: in vivo
[7] = Cmax in dog; type: ADME, organism-based, Canis lupus familiaris; conditions: in vivo
[8] = Clearance in rat at 10 umol/kg, iv; type: ADME, organism-based; conditions: in vivo
[9] = Volume of distribution at steady state in rat at 10 umol/kg, iv; type: ADME, organism-based; conditions: in vivo, read-out: Vdss
[10] = Volume of distribution at steady state in dog at 5 umol/kg, iv; type: ADME, organism-based, Canis lupus familiaris; conditions: in vivo, read-out: Vdss
[11] = AUC (0 to infinity) in rat; type: ADME, organism-based; parameters: time infinity; conditions: plasma
[12] = Oral bioavailability in dog at 12.5 umol/kg; type: ADME, organism-based, Canis lupus familiaris; conditions: in vivo
[13] = Oral bioavailability in rat at 100 umol/kg; type: ADME, organism-based; conditions: in vivo
[14] = AUC (0 to infinity) in dog; type: ADME, organism-based, Canis lupus familiaris; parameters: time infinity; conditions: plasma
[15] = Clearance in dog at 5 umol/kg, iv; type: ADME, organism-based, Canis lupus familiaris; conditions: in vivo

Sequence of C-C chemokine receptor type 5 (P51681 whole entry): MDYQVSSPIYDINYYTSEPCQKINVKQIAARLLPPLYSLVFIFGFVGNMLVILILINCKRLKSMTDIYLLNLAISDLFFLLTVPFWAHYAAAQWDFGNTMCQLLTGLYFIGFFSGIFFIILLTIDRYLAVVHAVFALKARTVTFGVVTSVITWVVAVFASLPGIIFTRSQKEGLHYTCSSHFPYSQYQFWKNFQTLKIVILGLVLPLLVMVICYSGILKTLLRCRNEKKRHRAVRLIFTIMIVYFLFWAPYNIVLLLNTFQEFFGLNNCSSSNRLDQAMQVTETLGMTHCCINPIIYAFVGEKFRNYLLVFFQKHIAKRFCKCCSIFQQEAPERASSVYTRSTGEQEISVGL

| Compound | IC50 [1] | IC50 [3] | CC50 [2] | further results |
| --- | --- | --- | --- | --- |
| CCO/N=C(/c1ccc(Br)cc1)C1CCN(C(C)(C)CCNC(=O)c2c(Cl)cncc2Cl)CC1 | 1760 nM | > 6810 nM | 34 µM | – |
| CCO/N=C(/c1ccc(Br)cc1)C1CCN(CCCNC(=O)c2c(C)cc[n+]([O-])c2C)CC1 | 180 nM | > 1500 nM | 7.5 µM | – |
| CCO/N=C(/c1ccc(Br)cc1)C1CCN(CCNC(=O)c2c(C)cc[n+]([O-])c2C)CC1 | – | > 39200 nM | 196 µM | – |
| CCO/N=C(/c1ccc(Br)cc1)C1CCN(C(C)CNC(=O)c2c(C)cc[n+]([O-])c2C)CC1 (configuration not stated) | 17000 nM | > 36400 nM | 182 µM | – |
| CCO/N=C(/c1ccc(Br)cc1)C1CCN(C(CC)CCNC(=O)c2c(C)cc[n+]([O-])c2C)CC1 (configuration not stated) | – | > 32800 nM | > 178 µM | – |
| CCO/N=C(/c1ccc(Br)cc1)C1CCN(C(C)CCN(C)C(=O)c2c(C)cc[n+]([O-])c2C)CC1 (configuration not stated) | 5620 nM | > 36500 nM | > 183 µM | – |
| CCO/N=C(/c1ccc(Br)cc1)C1CCN(C(C)CCNC(=O)c2c(Cl)cncc2Cl)CC1 (configuration not stated) | 130 nM | > 6700 nM | 33.8 µM | – |
| CCO/N=C(/c1ccc(Br)cc1)C1CCN(C2(CCNC(=O)c3c(Cl)cncc3Cl)CC2)CC1 | 21400 nM | > 6600 nM | 33 µM | – |
| CC(CCNC(=O)c1c(Cl)cncc1Cl)N1CCC(C2=NOCc3cc(Br)ccc32)CC1 (configuration not stated) | 12300 nM | > 7400 nM | 185 µM | – |
| CC(CCNC(=O)c1c(Cl)cncc1Cl)N1CCC(C(=O)c2ccc(Br)cc2)CC1 (configuration not stated) | – | 32600 nM | 189 µM | – |
| CC(CCNC(=O)c1c(Cl)cncc1Cl)N1CCC(C(O)c2ccc(Br)cc2)CC1 (configuration not stated) | 3390 nM | > 39600 nM | 198 µM | – |
| CC(CCNC(=O)c1c(Cl)cncc1Cl)N1CCC(C(Oc2ccccc2)c2ccc(Br)cc2)CC1 (configuration not stated) | 130 nM | > 1300 nM | 31.7 µM | – |
| CC(CCNC(=O)c1c(Cl)cncc1Cl)N1CCC(N(Cc2ccccc2)c2ccc(Br)cc2)CC1 (configuration not stated) | 30 nM | 220 nM | 4.28 µM | – |
| CC(CCNC(=O)c1c(Cl)cncc1Cl)N1CCC(C(Oc2ccccc2C#N)c2ccc(C(F)(F)F)cc2)CC1 (mixture of isomers) | 100 nM | 2870 nM | 17 µM | – |
| CC(CCNC(=O)c1c(Cl)cncc1Cl)N1CCC(C(Oc2ccccc2Cl)c2ccc(C(F)(F)F)cc2)CC1 (mixture of isomers) | 120 nM | > 1270 nM | 4.4 µM | – |
| CC(CCNC(=O)c1c(Cl)cncc1Cl)N1CCC(C(Oc2ccc(C(F)(F)F)cc2)c2ccc(C(F)(F)F)cc2)CC1 (mixture of isomers) | – | > 1230 nM | 3.1 µM | – |
| COC(=O)c1cccc(OC(c2ccc(C(F)(F)F)cc2)C2CCN(C(C)CCNC(=O)c3c(Cl)cncc3Cl)CC2)c1 (mixture of isomers) | – | > 6260 nM | 15.2 µM | – |
| CC(CCNC(=O)c1c(Cl)cncc1Cl)N1CCC(C(Oc2ccccn2)c2ccc(Br)cc2)CC1 (mixture of isomers) | 140 nM | 3760 nM | 33.7 µM | – |
| CC(CCNC(=O)c1c(Cl)cncc1Cl)N1CCC(C(Oc2cccnc2)c2ccc(Br)cc2)CC1 (mixture of isomers) | 970 nM | 3300 nM | 32.5 µM | – |
| CC(CCNC(=O)c1c(Cl)cncc1Cl)N1CCC(C(Oc2ccncc2)c2ccc(Br)cc2)CC1 (mixture of isomers) | – | > 240 nM | 31.2 µM | – |
| Cc1ccc(OC(c2ccc(Br)cc2)C2CCN(C(C)CCNC(=O)c3c(Cl)cncc3Cl)CC2)nc1 (mixture of isomers) | 3800 nM | > 1290 nM | 32.2 µM | – |
| Cc1cccnc1OC(c1ccc(C(F)(F)F)cc1)C1CCN(C(C)CCNC(=O)c2c(Cl)cncc2Cl)CC1 (mixture of isomers) | 60 nM | 2950 nM | 33 µM | – |
| Cc1ccnc(OC(c2ccc(C(F)(F)F)cc2)C2CCN(C(C)CCNC(=O)c3c(Cl)cncc3Cl)CC2)c1 (mixture of isomers) | 50 nM | > 6720 nM | 33.6 µM | – |
| COc1cccc(OC(c2ccc(C(F)(F)F)cc2)C2CCN(C(C)CCNC(=O)c3c(Cl)cncc3Cl)CC2)n1 (mixture of isomers) | – | > 1300 nM | 32.7 µM | – |
| CC(CCNC(=O)c1c(Cl)cncc1Cl)N1CCC(C(Oc2cccc(C(=O)O)n2)c2ccc(C(F)(F)F)cc2)CC1 (mixture of isomers) | – | > 28700 nM | 28.7 µM | – |

Now from value to molecule, other results behind:

| IC50 [1] | IC50 [3] | Compound | CC50 [2] | further results |
| --- | --- | --- | --- | --- |
| 290 nM | 2540 nM | CCO/N=C(/c1ccc(Br)cc1)C1CCN(C(C)CCNC(=O)c2c(C)cc[n+]([O-])c2C)CC1 (configuration not stated) | > 178 µM | – |
| 40 nM | 220 nM | CC(CCNC(=O)c1c(Cl)cncc1Cl)N1CCC(C2(c3ccc(C(F)(F)F)cc3)Cc3ccccc3O2)CC1 (configuration not stated) | 33.8 µM | – |
| 30 nM | 10 nM | CC(CCNC(=O)c1c(Cl)cncc1Cl)N1CCC(C2(c3ccc(C(F)(F)F)cc3)Oc3ccccc3O2)CC1 (configuration not stated) | 7.8 µM | – |
| 50 nM | 1270 nM | CC(CCNC(=O)c1c(Cl)cncc1Cl)N1CCC(C(Oc2ccccc2)c2ccc(C(F)(F)F)cc2)CC1 (mixture of isomers) | 6.8 µM | – |
| 50 nM | 480 nM | CC(CCNC(=O)c1c(Cl)cncc1Cl)N1CCC(C(Oc2cccc(C#N)c2)c2ccc(C(F)(F)F)cc2)CC1 (mixture of isomers) | 15.7 µM | – |
| 60 nM | 70 nM | CC(CCNC(=O)c1c(Cl)cncc1Cl)N1CCC(C(Oc2cccc(Cl)c2)c2ccc(C(F)(F)F)cc2)CC1 (mixture of isomers) | 8.1 µM | – |
| – | 100 nM | CC(CCNC(=O)c1c(Cl)cncc1Cl)N1CCC(C(Oc2ccccc2C(F)(F)F)c2ccc(C(F)(F)F)cc2)CC1 (mixture of isomers) | 12.5 µM | – |
| – | 30 nM | CC(CCNC(=O)c1c(Cl)cncc1Cl)N1CCC(C(Oc2cccc(C(F)(F)F)c2)c2ccc(C(F)(F)F)cc2)CC1 (mixture of isomers) | 7 µM | – |
| 40 nM | 230 nM | CC(CCNC(=O)c1c(Cl)cncc1Cl)N1CCC(C(Oc2cccc(F)c2)c2ccc(C(F)(F)F)cc2)CC1 (mixture of isomers) | 5.4 µM | – |
| 190 nM | 340 nM | Cc1cccnc1OC(c1ccc(Br)cc1)C1CCN(C(C)CCNC(=O)c2c(Cl)cncc2Cl)CC1 (mixture of isomers) | 32.1 µM | – |
| 140 nM | 1960 nM | Cc1ccnc(OC(c2ccc(Br)cc2)C2CCN(C(C)CCNC(=O)c3c(Cl)cncc3Cl)CC2)c1 (mixture of isomers) | 32.5 µM | – |
| 220 nM | 1550 nM | Cc1cccc(OC(c2ccc(Br)cc2)C2CCN(C(C)CCNC(=O)c3c(Cl)cncc3Cl)CC2)n1 (mixture of isomers) | 6.5 µM | – |
| 40 nM | 170 nM | Cc1cccc(OC(c2ccc(C(F)(F)F)cc2)C2CCN(C(C)CCNC(=O)c3c(Cl)cncc3Cl)CC2)n1 (mixture of isomers) | 6.7 µM | – |
| 140 nM | 80 nM | CC(CCNC(=O)c1c(Cl)cncc1Cl)N1CCC(C(Oc2ncccc2Cl)c2ccc(C(F)(F)F)cc2)CC1 (mixture of isomers) | 16.7 µM | – |
| 70 nM | 430 nM | CC(CCNC(=O)c1c(Cl)cncc1Cl)N1CCC(C(Oc2cc(Cl)ccn2)c2ccc(C(F)(F)F)cc2)CC1 (mixture of isomers) | 4.26 µM | – |
| 20 nM | 9 nM | CC(CCNC(=O)c1c(Cl)cncc1Cl)N1CCC(C(Oc2cccc(Cl)n2)c2ccc(C(F)(F)F)cc2)CC1 (mixture of isomers) | > 32.5 µM | Cmax [4]: 200 nM; half-life [5]: 72 min; half-life [6]: 462 min; Cmax [7]: 100 nM; clearance [8]: 142 mL/min/kg; Vd [9]: 15.2 L/kg; Vd [10]: 20.8 L/kg; AUC(0-inf) [11]: 2.4 µM·h; bioavailability [12]: 6%; bioavailability [13]: 20%; AUC(0-inf) [14]: 0.5 µM·h; clearance [15]: 31.7 mL/min/kg |
| 30 nM | 2 nM | CC(CCNC(=O)c1c(Cl)cncc1Cl)N1CCC(C(Oc2cccc(Cl)n2)c2ccc(OC(F)(F)F)cc2)CC1 (mixture of isomers) | 6 µM | – |
| 10 nM | 4 nM | CC(CCNC(=O)c1c(Cl)cncc1Cl)N1CCC(C(Oc2cccc(Cl)n2)c2ccc(S(C)(=O)=O)cc2)CC1 (mixture of isomers) | > 29.5 µM | – |
| 30 nM | 130 nM | CC(CCNC(=O)c1c(Cl)cncc1Cl)N1CCC(C(Oc2ccccn2)c2ccc(C(F)(F)F)cc2)CC1 (mixture of isomers) | 34.1 µM | – |
| 130 nM | 60 nM | CC(CCNC(=O)c1c(Cl)cncc1Cl)N1CCC(C(Oc2cccc(C(F)(F)F)n2)c2ccc(C(F)(F)F)cc2)CC1 (mixture of isomers) | 13.5 µM | – |
| 40 nM | 9 nM | CC(CCNC(=O)c1c(Cl)cncc1Cl)N1CCC(C(Oc2cccc(C#N)n2)c2ccc(C(F)(F)F)cc2)CC1 (mixture of isomers) | 15.7 µM | – |
| 1050 nM | 520 nM | COC(=O)c1cccc(OC(c2ccc(C(F)(F)F)cc2)C2CCN(C(C)CCNC(=O)c3c(Cl)cncc3Cl)CC2)n1 (mixture of isomers) | 14.6 µM | – |
| 40 nM | 160 nM | CCO/N=C(/c1ccc(Br)cc1)C1CCN(C2(C)CCN(C(=O)c3c(C)cc[n+]([O-])c3C)CC2)CC1 [SCHERING C] | > 1.6 µM | Cmax [4]: 1600 nM; half-life [5]: 162 min; clearance [8]: 31.7 mL/min/kg; Vd [9]: 7.2 L/kg; AUC(0-inf) [11]: 4.3 µM·h; bioavailability [13]: 48% |

— ChEMBL document CHEMBL1759996, “Design and synthesis of pyridin-2-yloxymethylpiperidin-1-ylbutyl amide CCR5 antagonists that are potent inhibitors of M-tropic (R5) HIV-1 replication” (Bioorg Med Chem Lett, 2011)
